This note sets out measurements from ChEMBL document CHEMBL3507680, “University of Dundee, Gates Library screen for HepG2 cell viability”.

A short description of the data set: Human HepG2 cell viability assay in 384 well format. The data set is classed as toxicity, cell-based. Also noted: dose 125 nL, time 70.5 hour; concentration not given beside the values. The settings on record: HepG2 cells, read-out: Inhibition.
Turning to `CCc1nc(C2CCCN2CC(=O)Nc2cc(C)no2)no1` (stereo not drawn), the cytotoxicity at 70.5 h was -5.2%.
The result for `Cc1nn(C)c(N(C)C)c1CNCc1cccc(Br)c1` reads -5.91%; that for `O=C(CC1CCc2ccccc21)N1CCC(O)(Cn2ccnc2)CC1` (stereo not drawn), -5.64%; that for `Cc1cc(S(=O)(=O)N2CCC(S(C)(=O)=O)CC2)ccc1F`, -0.414%.
As to `O=C(Cc1ccc(-n2cccn2)cc1)N1CCN2CCCCC2C1` (stereo not drawn), the cytotoxicity at 70.5 h was 3.24%.
To `CCn1ncnc1C(C)NC(=O)CC1CCN(C(C)C)CC1` (stereo not drawn) belongs 30%; to `Cc1cnc(CNC(=O)C2CCOc3ccccc3C2)cn1` (stereo not drawn), -19.3%; to `Cc1ccnc(OCC(=O)N2CCC(C(N)=O)CC2)n1`, -4.44%.
On to `COc1ccc(C(CN2CCN(C)CC2)Nc2ncccn2)cc1` (stereo not drawn), for which the cytotoxicity at 70.5 h was found to be 0.96%.
To `CCCN1CCC2(Cc3ccccc3NC2=O)C1` (stereo not drawn) belongs -0.983%.
With `CC(=O)c1c(C)nn(S(=O)(=O)c2ccc(Cl)cc2)c1C`, the cytotoxicity at 70.5 h is 3.92%.
The result for `Cn1cc(-c2nnc3sc(C4CC4)nn23)cn1` reads -4.13%; that for `Cc1ccnn1CCC(=O)N1CCOC(CCc2ccccc2)C1` (stereo not drawn), -7.51%.
The result for `Cc1nc(CN(C)C(=O)CN(C)C)nc2c1CCC(=O)N2CCC(C)C` reads -0.759%.
The result for `O=C(NS(=O)(=O)c1ccc(C2CCCCC2)cc1)C1COCCO1` (stereo not drawn) reads -4.85%; that for `Cn1cnnc1C1CCCN(Cc2nc(Cc3ccccc3)no2)C1` (stereo not drawn), 13%.
With `CCOc1ccc(C(=O)N2CCCC2c2cnn(C)c2)cn1` (stereo not drawn), the cytotoxicity at 70.5 h was -5.51%.
To `O=C(CC(F)(F)F)N1CCCC(c2nccn2Cc2ccncc2)C1` (stereo not drawn) belongs -6.22%.
In the case of `C[C@@H]1CN(Cc2cc(C(F)(F)F)ccc2F)CC[C@@]1(O)C1CC1`, the cytotoxicity at 70.5 h was -2.04%.
The result for `CC(=O)Nc1ccc(Oc2cc(C)nc(C3CCCNC3)c2)cc1` (stereo not drawn) reads -3.03%; that for `CC(C)c1nn(C)c(N(C)C)c1CNCc1ccc(CO)c(F)c1`, 1.57%; that for `Cn1ccnc1-c1noc(NCc2ccc(Cl)cc2)n1`, -8.5%.
To `O=S1(=O)COCCN1Cc1cccc(Cl)c1` belongs -8.17%; to `Cc1nsc(NC2CCOC3(CCCCC3)C2)n1` (stereo not drawn), -8.47%; to `CSc1ncccc1C(=O)NCCC(O)c1ccco1` (stereo not drawn), 1.61%.
To `CCN(CC)S(=O)(=O)CCNC(=O)N(C)C(C)c1ccccn1` (stereo not drawn) belongs -8.05%.
Take `CS(=O)(=O)N1CCC(CNC(=O)c2cnccn2)CC1`: the cytotoxicity at 70.5 h came out at 31.3%.
On to `CN(C)C[C@H]1OC[C@@H]2CCN(S(=O)(=O)c3ccccc3)C[C@@H]21`, for which the cytotoxicity at 70.5 h worked out at 22.9%.
To `O=C(CCc1cscn1)N1CCCC(c2ccn[nH]2)C1` (stereo not drawn) belongs -8.08%; to `CCN(C)c1ncnc2c1CCN(C(=O)NCc1cccnc1)CC2`, 0.595%.
To `CCc1nc(N2CCOCC2)ncc1C(=O)NC(c1cccs1)C(C)C` (stereo not drawn) belongs -0.678%; to `Cc1nc(C(C)C)sc1C(=O)NCCn1nc2ccccn2c1=O`, -1.52%; to `Cc1nn(CC(C)C)cc1S(=O)(=O)N(C)Cc1nonc1C`, 0.131%.
To `CC(NC(=O)N1CCC1)c1ccc(S(C)(=O)=O)cc1` (stereo not drawn) belongs -5.1%; to `CCOCCn1c(=O)n(CCC=C(C)C)c2cc(C(=O)O)cnc21`, -4.64%.
Regarding `CCOc1c(Cl)cc(Cl)cc1CNCCCn1ccnc1`, the cytotoxicity at 70.5 h was -10.4%.
Turning to `C=C(C)COc1ccc(C(CC(=O)OC)c2oc(C)cc(=O)c2O)cc1` (stereo not drawn), the cytotoxicity at 70.5 h was -0.596%.
Turning to `CC(C)n1nc(CN2CCCC2=O)c2c1CN(C(=O)c1ccno1)C2`, the cytotoxicity at 70.5 h was -1.71%.
To `Cc1ccoc1C(=O)NCC(c1ccccc1Cl)N1CCOCC1` (stereo not drawn) belongs -1.62%; to `CC(=O)N1CCCn2nc(CNc3cc(C)ncn3)cc2C1`, 15%.
The result for `Cc1cc(C[S+]([O-])CC(=O)NCc2cccs2)no1` (stereo not drawn) reads -4.91%; that for `CC(C)(C)CN(CCC#N)C(=O)c1cccc(CC#N)c1`, -3.08%.
As for `O=C(COC1CCCC1)NCCCn1nc2ccccn2c1=O`, the cytotoxicity at 70.5 h was -16.2%.
The result for `CC(Cn1ccnc1)NC(=O)C1(c2ccc3c(c2)OCCO3)CCCC1` (stereo not drawn) reads 14.5%; that for `CNc1nc(C(=O)N2CCC3(CCCN(CCOC)C3=O)C2)cs1` (stereo not drawn), -3.96%; that for `CC(C)c1nc(C2CCCN2CC(=O)Nc2ccc(Cl)cn2)no1` (stereo not drawn), 19.2%.
The result for `O=C(c1cscn1)N1CCC[C@]2(C[C@H](OCC3CC3)CO2)C1` reads -5.48%.
The result for `COCCO[C@@H]1C[C@H]2CN(C(=O)c3cnccn3)CCN2C1` reads -6.2%; that for `Cc1cnn(CC2CCCN2c2ncnc3ccccc23)c1` (stereo not drawn), 9.14%.
As for `COc1cc(-c2nc(C3CC3)nn2-c2ccnc(C)c2)nc(OC)n1`, the cytotoxicity at 70.5 h is -14.3%.
Take `CN(C)S(=O)(=O)N1C[C@@H]2CC[C@H](C1)N(C/C=C/c1ccc(F)cc1)C2`: the cytotoxicity at 70.5 h amounted to 0.852%.
To `Cc1ccc(CNC(=O)Nc2nncs2)cn1` belongs -6.07%.
To `CCc1oc(C(=O)NC(C)c2ncn[nH]2)cc1CN1CCCC1` (stereo not drawn) belongs -10.5%; to `Cc1cc(C)c2c(c1)NC(=O)C2CC(=O)O` (stereo not drawn), -4.36%.
The result for `COc1ccc(CNC(=O)NC(C)(C(=O)O)c2ccco2)cc1F` (stereo not drawn) reads 16.9%; that for `NC(=O)c1ccccc1NC(=O)CCN1CCN(CCO)CC1`, -10.4%.
In the case of `CN1CCN(C(=O)c2cc3sccc3n2Cc2ccc(Cl)cc2)CC1`, the cytotoxicity at 70.5 h was -5.06%.
The result for `CC(C)c1nc(C2CCCN2C(=O)CN(C)Cc2ccccc2)no1` (stereo not drawn) reads 11.3%; that for `Cc1cccc2c1nc(COCC(=O)O)n2-c1ccsc1`, -4.32%.
The result for `Cc1noc(-c2ccc(N(C)Cc3ccncn3)nc2)n1` reads -5.88%; that for `Cc1noc(-c2ccc(N[C@H]3CCCCNC3=O)nc2)n1`, -1.42%; that for `Cc1nocc1C(=O)N1CCOC2(COCCN(CC3CC3)C2)C1` (stereo not drawn), -2.08%.
Regarding `COc1ccccc1C(=O)Nc1nc2c(s1)CN(S(=O)(=O)C1CC1)CC2`, the cytotoxicity at 70.5 h was -3.51%.
Consider `Cc1nccn1CCC(=O)N1CCCN(c2ccccc2)CC1`, for which the cytotoxicity at 70.5 h is -6.92%.
To `Cc1nc2c(C#N)cnn2c(C)c1CCC(=O)N(C)C(C)C(C)C` (stereo not drawn) belongs -11.8%.
Take `Cc1ccc(N2CCCC(NCc3cnc(C)s3)C2)nn1` (stereo not drawn): the cytotoxicity at 70.5 h was -1.22%.
To `Cn1cc(CCNC(=O)C2(c3cccc(Cl)c3)CC2)cn1` belongs -18.4%; to `COc1ccccc1CC(=O)N1CCC(NCc2c[nH]nc2C)CC1`, 2.03%.
Regarding `Cc1occc1C(=O)N1CCOC2(CCCC2)C1`, the cytotoxicity at 70.5 h was -3.65%.
For `CC(C)CC(C)NCCCN1CCCN(C)CC1` (stereo not drawn), the cytotoxicity at 70.5 h was determined as 21.1%.
As to `COc1cc(C)nc(N2CCN(C(=O)c3ccc[nH]3)CC2)n1`, the cytotoxicity at 70.5 h was -1.4%.
For `CC1CCCN(Cc2coc(-c3cccc(F)c3)n2)C1` (stereo not drawn), the cytotoxicity at 70.5 h was -5.26%.
To `CN(C)C(=O)COCc1cncc2c1CCN(Cc1ccccc1)C2` belongs -3.3%.
